Tests used:
[1] = tested on: human vaginal epithelial cells of the A-431 cell line; format: cell-based
Method: Test of totarol impact on the human vaginal epithelial cells of the A-431 cell line (ATCC® The study was carried out using the following test: Annexin-V-Fluos (Roche, Mannheim, Germany), during incubation for 2, 8 and 24 hours, under in vitro conditions, according to the instructions of the test's manufacturer. The totarol sample was prepared by dissolution of 3 mg of totarol in 3 ml of 100% DMI.
The cultivation time for the A-431 cell line was 20 days. The culture was carried out at a temperature of 37° C. in an atmosphere containing 10% CO2, on a DMEM culture medium (Institute of Immunology and Experimental Therapy PAS [IITD PAN], Wroclaw), with an addition of 10% of foetal bovine serum (FBS, Sigma-Aldrich). The culture fluid were being replaced regularly every 48 hours. After achieving a decantable growth or the so-called “monolayer”, the cells were passaged using (for approx. 10 min) 0.25% trypsin (Sigma-Aldrich). Then, the obtained tissue line was passed to 24-well plates (TPP), adjusting their densities to the value of 5×10^5 per well. The tissue culture of the studied lines was carried out for 3 next days on the surface of sterile microscope slides placed on the bottom of a 24-well plate, until a decantable growth was obtained on the surface of the microscope slides. After obtaining the so-called “monolayer”, the cells were washed with PBS without Ca^2+ and Mg^2+ ions (IITD PAN, Wroclaw), and poured with 700 µl of fresh DMEM medium with 10% FBS, together with 300 μl of properly prepared totarol. • Negative control: 1000 μl of fresh DMEM medium with 10% FBS. • Solvent control: 700 μl of fresh DMEM medium with 10% FBS+300 μl of DMI solvent. • Necrosis positive control: 900 μl of fresh DMEM medium with 10% FBS+100 μl H2O2 (30%). The proper examination using the Annexin-V-Fluos test causes green staining of apoptotic cells. […] This dye has an ability to penetrate the cell's interior freely only through a damaged cellular membrane, staining the interior red. In the case of a lack of damages of the cellular membrane, propidium iodide remains on its surface, forming a characteristic red “halo” around the cell. After a corresponding study time, i.e. 2, 8, and 24 hours, the culture fluid was removed, the content was washed with PBS (pre-heated to a temperature of 37° C.) twice. Then, 100 μl of the fluorescent stains mixture including in the Annexin-V-Fluos (Roche) kit were applied on the surface of each microscope slide (placed in a culture well) and additionally, Hoechst stain was used (cellular DNA staining). The staining procedure was carried out according to the manufacturer's recommendations. The culture together with the stains applied onto it were incubated at room temperature for 20 min. The intensity of light emitted by the cells stained with the individual stains was observed using a fluorescent microscope at the wavelength of 494-520 nm, using 400× magnification. The cells were counted in five visual fields, and the results were averaged. The reliability of the tests carried out is confirmed by hydrogen peroxide used as a positive control, causing a distinct necrosis process already after 2 hours of incubation. Data analyses were carried out on the basis of the average number of cells from five visual fields in the individual times (2, 8, and 24 h). The results are presented in Table 6 and in the form of photographic documentation—FIGS. 1, 2, 3, 4.

Gardnerella vaginalis = details: cited from earlier work

Structure (SMILES)	Alive cells [1]	Apopt. cells [1]	Necrot. Cells [1]	Necrot. cells [1]	apoptosis and necrosis in epithelial cells, photographic documentation [1]	metronidazole-resistant strain percentage (Gardnerella vaginalis; Goldstein et al., 1993) [%]	percentage of resistant strains (Gardnerella vaginalis; Goldstein et al., 2002) [%]	studied strains characterised by resistance to metronidazole (Gardnerella vaginalis; Poland, 67 strains isolated from 604 females (46 out of 67)) [%]	resistance of Gardnerella vaginalis strains to metronidazole (Gardnerella vaginalis; studies published in 2007) [%]
OO [Necrosis positive control, reference compound]	0	0	100	100	Necrotic cells				
Cc1ncc([N+](=O)[O-])n1CCO [metronidazole]						20	29	68.7	70
